Assay: Inhibition of Nav1.7 in C57BL/6 […] embryonic DRG cells assessed as blockade of spontaneous neuronal firing by Maestro microelectrode array analysis

IC50: 1.2 nM
Compound: N[C@H]1CC[C@@H](CNc2cc(F)c(S(=O)(=O)Nc3nccs3)cc2Cl)CC1

— BindingDB's records for doi:10.1021/acs.jmedchem.6b01918 (Bristol Myers Squibb, 2017)
